2 compounds from patent US9399649B2, “Compounds for treating spinal muscular atrophy” (PTC Therapeutics Inc., priority 2012, dated 2016) can be followed below.

For one test, the system named is Smn protein. Description: Smn protein assay in tissues of adult C/C-allele SMA mice. The note with it: 10 mg/kg BID orally for 10 days, brain, spinal cord, muscle and liver, relative to vehicle group, FIG. 11. Type of test: in vivo. The procedure: This Smn protein assay compares tissues from test compound treated mice with those from DMSO vehicle treated mice to determine the increase in levels of Smn protein produced from the human SMN2 gene.
The tissue samples in Safe-Lock tubes are weighed and the volume of RIPA buffer containing the protease inhibitor cocktail is added based on the weight to volume ratios for each type of tissue: Brain (50 mgmL), Muscle (50 mgmL) and Spinal Cord (25 mgmL).
Tissues are homogenized using the TissueLyzer by bead milling. 5 mm stainless steel beads are added to the sample and shaken vigorously for 5 minutes at 30 Hz in the TissueLyzer. […] Fluorescence for each well of the plate at 665 nm and 620 nm is measured on an EnVision multilabel plate reader (Perkin-Elmer). The total protein in the tissue homogenate is measured using the BCA assay according to the manufacturer's protocol.
The normalized fluorescence signal is calculated for each sample, Blank and vehicle control well by dividing the signal at 665 nm by the signal at 620 nm. Normalizing the signal accounts for possible fluorescence quenching due to the matrix effect of the tissue homogenate. […] The ΔF value for each tissue sample well is divided by the total protein quantity (determined using the BCA assay) for that tissue sample. […]

For test [1], the system named is full length and Δ7 SMN2 mRNA. Description: SMN2 mRNA RT-qPCR splicing assay in animal tissues. Type of test: in vivo. The note with it: C/C-allele SMA mice, brain and muscle, 10 mg/kg oral BID for 10 days, FIG. 6. The procedure:
The reverse transcription-quantitative PCR-based (RT-qPCR) assay is used to quantify the levels of the full length and Δ7 SMN2 mRNA in tissues from mice treated with test compound.
C/C-allele SMA mice are treated by oral gavage two times per day (BID) for 10 days with test compounds re-suspended in 0.5% HPMC and 0.1% Tween-80. Tissue samples were collected and snap frozen for RNA purification.
Tissue samples (20-40 mg) are homogenized in QIAzol Lysis Reagent for 2 minutes at 20 Hz in the TissueLyser II using one stainless steel bead. After addition of chloroform, the homogenate is separated into aqueous and organic phases by centrifugation. RNA partitioned to the upper, aqueous phase is extracted and ethanol is added to provide appropriate binding conditions. The sample is then applied to the RNeasy spin column from the RNeasy Mini Kit, where total RNA binds to the membrane. The RNA is eluted in RNase-free water then stored at −20° C. and subsequently analyzed using the TaqMan RT-qPCR on the 7900HT Thermocycler. Total RNA is diluted ten fold and 2.5 μL, of the diluted sample is added to the TaqMan RT-qPCR mixture.
SMN2 spliced products are identified using the following primers and probes in Table 7. Primer SMN FL Forward B (SEQ ID NO. 7) hybridizes to a nucleotide sequence in exons 7 and 8, primer SMN Δ7 Forward B (SEQ ID NO. 8) hybridizes to a nucleotide sequence in exons 6 and 8, primer SMN Reverse B (SEQ ID NO. 9) hybridizes to a nucleotide sequence in exon 8, probe SMN Probe B (SEQ ID NO. 10) hybridizes to a nucleotide sequence in exon 8. These primers and probe hybridize to nucleotide sequences common to human SMN1 and SMN2 mRNA. Since the SMA patient cells used in Example 5 contain only the SMN2 gene, RT-qPCR can quantify only SMN2 full-length and Δ7 mRNA.
The SMN forward and reverse primers are used at final concentrations of 0.4 μM. The SMN probe is used at a final concentration of 0.15 μM. The SMN-GAPDH Mix (10 μL, total volume) is prepared by combining 5 μL of 2×RT-PCR buffer, 0.4 μL of 25×RT-PCR enzyme mix, 0.5 μL of 20×GAPDH primer-probe mix, 1.505 μL of water, 2.5 μL of RNA solution, 0.04 μL of 100 μM forward primer, 0.04 μL of 100 μM reverse primer, and 0.015 μL of 100 μM SMN probe. […]
The increase of SMN2 FL and decrease in SMN2 Δ7 mRNA relative to those in tissues from animals treated with vehicle control are determined from real-time PCR data using a modified ΔΔCt method (as described in Livak and Schmittgen, Methods, 2001, 25:402-8). The amplification efficiency (E) is calculated from the slope of the amplification curve for SMN2 FL, SMN2 Δ7, and GAPDH individually. The abundances of SMN2 FL, SMN2 Δ7, and GAPDH are then calculated as (1+E)^−Ct, where Ct is the threshold value for each amplicon. […]

For `Cc1cn2cc(-c3cc4ccc(N5CCN(C)CC5)cc4c(=O)o3)nc2c(C)n1` [Cpd 65, 3-(6,8-dimethylimidazo[1,2-a]pyrazin-2-yl)-7-(4-methylpiperazin-1-yl)-1H-isochromen-1-one], the “total protein normalized Smn level in tissues” value with Smn protein is “increased in brain, spinal cord, muscle and liver tissues”. Moreover, in test [1], the “SMN2 FL mRNA in tissues” value is “substantially more SMN2 FL mRNA” and the “SMN2 Δ7 mRNA in tissues” value is listed as “less SMN2 Δ7 mRNA”.
In the case of `Cc1cn2cc(-c3cc4ccc(N5CCN6CCC[C@H]6C5)cc4c(=O)o3)nc2c(C)n1` [Cpd 69, 3-(6,8-dimethylimidazo[1,2-a]pyrazin-2-yl)-7-[(8aS)-hexahydropyrrolo[1,2-a]pyrazin-2(1H)-yl]-1H-isochromen-1-one], the “total protein normalized Smn level in tissues” value in the test on Smn protein is “increased in brain, spinal cord, muscle and liver tissues”. In test [1], the “SMN2 FL mRNA in tissues” value is “substantially more SMN2 FL mRNA” and the “SMN2 Δ7 mRNA in tissues” value is given as “less SMN2 Δ7 mRNA”.
